target: human orexin-2 receptor (Homo sapiens (Human), UniProt O43614); experiment: Human orexin 2 receptor radioligand binding ([3H]-EMPA competition); settings: HEK293 cells stably expressing human orexin-2 receptor; [3H]-EMPA 5 nM final; apparent Ki=IC50/(1+C/Kd), Kd=2 nM; read-out: OR 2 Ki
Sequence (O43614 whole entry): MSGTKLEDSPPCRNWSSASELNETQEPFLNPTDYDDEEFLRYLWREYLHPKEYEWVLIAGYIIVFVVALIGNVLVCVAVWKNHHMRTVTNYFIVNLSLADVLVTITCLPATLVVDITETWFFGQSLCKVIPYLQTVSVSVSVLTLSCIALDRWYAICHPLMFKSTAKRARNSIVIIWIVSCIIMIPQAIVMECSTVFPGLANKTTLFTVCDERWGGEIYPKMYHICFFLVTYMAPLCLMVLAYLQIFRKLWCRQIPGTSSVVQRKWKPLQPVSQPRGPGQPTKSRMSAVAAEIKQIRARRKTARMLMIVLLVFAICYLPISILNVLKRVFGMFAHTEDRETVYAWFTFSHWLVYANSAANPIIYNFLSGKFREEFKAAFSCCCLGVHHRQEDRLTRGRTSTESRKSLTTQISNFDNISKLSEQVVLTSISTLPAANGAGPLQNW

SMILES	Ki [nM]
COc1cc(OC)nc(N2CC3CN(C(=O)c4cc(F)ccc4-n4nccn4)CC3C2)n1 (stereo not drawn) [Example 72, 2-(4,6-Dimethoxypyrimidin-2-yl)-5-{[5-fluoro-2-(2H-1,2,3-triazol-2-yl)phenyl]carbonyl}octahydropyrrolo[3,4-c]pyrrole]	318
COc1cccc(C(=O)N2CC3CN(c4nc(C)cc(C)n4)CC3C2)c1C (stereo not drawn) [Example 92, 2-(4,6-Dimethylpyrimidin-2-yl)-5-[(3-methoxy-2-methylphenyl)carbonyl]octahydro-pyrrolo[3,4-c]pyrrole]	766
COc1ccc(C(=O)N2CC3CN(c4nc5ccccc5o4)CC3C2)c(OC)c1 (stereo not drawn) [Example 183, (5-Benzooxazol-2-yl-hexahydro-pyrrolo[3,4-c]pyrrol-2-yl)-(2,4-dimethoxy-phenyl)-methanone]	5000
COc1cc(N2CC3CN(C(=O)c4c(F)cccc4-n4nccn4)CC3C2)nc(N(C)C)n1 (stereo not drawn) [Example 1, 4-[5-{[2-Fluoro-6-(2H-1,2,3-triazol-2-yl)phenyl]carbonyl}hexahydropyrrolo[3,4-c]pyrrol-2(1H)-yl]-6-methoxy-N,N-dimethylpyrimidin-2-amine]	37
Cc1cnc(N2CC3CN(C(=O)c4ccccc4-c4ccccc4)CC3C2)c(C)n1 (stereo not drawn) [Example 64, 2-(Biphenyl-2-ylcarbonyl)-5-(3,5-dimethylpyrazin-2-yl)octahydropyrrolo[3,4-c]pyrrole]	579
Cc1cc(C)nc(N2CC3CN(C(=O)c4ccccc4-c4ncc[nH]4)CC3C2)n1 (stereo not drawn) [Example 182, [5-(4,6-Dimethyl-pyrimidin-2-yl)-hexahydro-pyrrolo[3,4-c]pyrrol-2-yl]-[2-(1H-imidazol-2-yl)-phenyl]-methanone]	2200
COc1cc(OC)nc(N2CC3CN(C(=O)c4ncccc4-c4ccccc4)CC3C2)n1 (stereo not drawn) [Example 207, [5-(4,6-Dimethoxy-pyrimidin-2-yl)-hexahydro-pyrrolo[3,4-c]pyrrol-2-yl]-(3-phenyl-pyridin-2-yl)-methanone]	9000
O=C(c1ccccc1-n1nccn1)N1CC2CN(c3ccc(F)cn3)CC2C1 (stereo not drawn) [Example 152, 2-(5-Fluoropyridin-2-yl)-5-{[2-(2H-1,2,3-triazol-2-yl)phenyl]carbonyl}octahydro pyrrolo[3,4-c]pyrrole]	125
Cc1cc(C)nc(N2CC3CN(C(=O)c4ccc(F)c5ccccc45)CC3C2)n1 (stereo not drawn) [Example 90, 2-(4,6-Dimethylpyrimidin-2-yl)-5-[(4-fluoronaphthalen-1-yl)carbonyl]octahydro-pyrrolo[3,4-c]pyrrole]	38
Cc1cc(C)nc(N2CC3CN(C(=O)c4c(C)ccc5ccccc45)CC3C2)n1 (stereo not drawn) [Example 47, 2-(4,6-Dimethylpyrimidin-2-yl)-5-[(2-methylnaphthalen-1-yl)carbonyl]octahydro-pyrrolo[3,4-c]pyrrole]	38
O=C(c1ccccc1-c1cccs1)N1CC2CN(c3nc4ccc(F)cc4s3)CC2C1 (stereo not drawn) [Example 46, 6-Fluoro-2-{5-[(2-thiophen-2-ylphenyl)carbonyl]hexahydropyrrolo[3,4-c]pyrrol-2(1H)-yl}-1,3-benzothiazole]	132
O=C(c1ccccc1-c1ccccc1)N1CC2CN(c3nc4ccc(F)cc4s3)CC2C1 (stereo not drawn) [Example 176, 2-[5-(Biphenyl-2-ylcarbonyl)hexahydropyrrolo[3,4-c]pyrrol-2(1H)-yl]-6-fluoro-1,3-benzothiazole]	236
Cc1ccnc(N2CC3CN(C(=O)c4ccccc4-n4nccn4)CC3C2)n1 (stereo not drawn) [Example 135, 2-(4-Methylpyrimidin-2-yl)-5-{[2-(2H-1,2,3-triazol-2-yl)phenyl]carbonyl}octahydro pyrrolo[3,4-c]pyrrole]	90
Cc1ccnc(N2CC3CN(C(=O)c4c(C)ccc5ccccc45)CC3C2)n1 (stereo not drawn) [Example 50, 2-[(2-Methylnaphthalen-1-yl)carbonyl]-5-(4-methylpyrimidin-2-yl)octahydro-pyrrolo[3,4-c]pyrrole]	215
Cc1cc(C)nc(N2CC3CN(C(=O)c4sccc4-c4ccccc4)CC3C2)n1 (stereo not drawn) [Example 12, 2-(4,6-Dimethylpyrimidin-2-yl)-5-[(3-phenylthiophen-2-yl)carbonyl]octahydropyrrolo[3,4-c]pyrrole]	46
COc1cc(OC)nc(N2CC3CN(C(=O)c4ccccc4-c4ccccn4)CC3C2)n1 (stereo not drawn) [Example 70, 2-(4,6-Dimethoxypyrimidin-2-yl)-5-[(2-pyridin-2-ylphenyl)carbonyl]octahydro-pyrrolo[3,4-c]pyrrole]	52
COc1cccc(OC)c1C(=O)N1CC2CN(c3nccc(-c4ccccc4)n3)CC2C1 (stereo not drawn) [Example 166, 2-[(2,6-Dimethoxyphenyl)carbonyl]-5-(4-phenylpyrimidin-2-yl)octahydropyrrolo[3,4-c]pyrrole]	465
Cc1cnc(C)c(N2CC3CN(C(=O)c4c(F)cccc4-n4nccn4)CC3C2)n1 (stereo not drawn) [Example 101, 2-(3,6-Dimethylpyrazin-2-yl)-5-{[2-fluoro-6-(2H-1,2,3-triazol-2-yl)phenyl]carbonyl}octahydropyrrolo[3,4-c]pyrrole]	48
COc1ccc(C(=O)N2CC3CN(c4nccc(OC)n4)CC3C2)c(OC)c1 (stereo not drawn) [Example 179, (2,4-Dimethoxy-phenyl)-[5-(4-methoxy-pyrimidin-2-yl)-hexahydro-pyrrolo[3,4-c]pyrrol-2-yl]-methanone]	9000
COc1ccc(C(=O)N2CC3CN(c4cc(C)c5ccccc5n4)CC3C2)c(OC)c1 (stereo not drawn) [Example 170, 2-{5-[(2,4-Dimethoxyphenyl)carbonyl]hexahydropyrrolo[3,4-c]pyrrol-2(1H)-yl}-4-methylquinoline]	945
O=C(c1ccccc1-c1cccc(F)c1)N1CC2CN(c3cnc4ccccc4n3)CC2C1 (stereo not drawn) [Example 29, 2-{5-[(3′-Fluorobiphenyl-2-yl)carbonyl]hexahydropyrrolo[3,4-c]pyrrol-2(1H)-yl}quinoxaline]	135

Continued, values first:

Ki [nM]	SMILES
39	O=C(c1cccc(F)c1-n1nccn1)N1CC2CN(c3ncc4cc(F)ccc4n3)CC2C1 (stereo not drawn) [Example 242, (3-Fluoro-2-(2H-1,2,3-triazol-2-yl)phenyl)(5-(6-fluoroquinazolin-2-yl)hexahydropyrrolo[3,4-c]pyrrol-2(1H)-yl)methanone]
36	Cc1ccnc(-c2cc(F)ccc2C(=O)N2CC3CN(c4nc(C)cc(C)n4)CC3C2)c1 (stereo not drawn) [Example 343, (5-(4,6-Dimethylpyrimidin-2-yl)hexahydropyrrolo[3,4-c]pyrrol-2(1H)-yl)(4-fluoro-2-(4-methylpyridin-2-yl)phenyl)methanone]
10000	Cc1cc(C)nc(N2CC3CN(C(=O)c4cccnc4Br)CC3C2)n1 (stereo not drawn) [Example 234]
16	Cc1nc(N2CC3CN(C(=O)c4ncccc4-n4nccn4)CC3C2)nc(C)c1F (stereo not drawn) [Example 325, 2-(5-Fluoro-4,6-dimethylpyrimidin-2-yl)-5-{[3-(2H-1,2,3-triazol-2-yl)pyridin-2-yl]carbonyl}octahydropyrrolo[3,4-c]pyrrole]
4400	COc1ccccc1S(=O)(=O)N1CC2CN(c3ccc(C(F)(F)F)cn3)CC2C1 (stereo not drawn) [Example 361, 2-((2-Methoxyphenyl)sulfonyl)-5-(5-(trifluoromethyl)pyridin-2-yl)octahydropyrrolo[3,4-c]pyrrole]
10000	Cc1cc(C)nc(N2CC3CN(C(=O)c4cccnc4-c4ccnn4C4CCCCO4)CC3C2)n1 (stereo not drawn) [Example 236, (5-(4,6-Dimethylpyrimidin-2-yl)hexahydropyrrolo[3,4-c]pyrrol-2(1H)-yl)(2-(1-(tetrahydro-2H-pyran-2-yl)-1H-pyrazol-5-yl)pyridin-3-yl)methanone]
9000	CCCc1nc(C)cc(N2CC3CN(C(=O)c4ccccc4-n4nccn4)CC3C2)n1 (stereo not drawn) [Example 209, [5-(6-Methyl-2-propyl-pyrimidin-4-yl)-hexahydro-pyrrolo[3,4-c]pyrrol-2-yl]-(2-[1,2,3]triazol-2-yl-phenyl)-methanone]
10000	Cc1cc(C)nc(N2CC3CN(C(=O)c4occc4C)CC3C2)n1 (stereo not drawn) [Example 352, (5-(4,6-Dimethylpyrimidin-2-yl)hexahydropyrrolo[3,4-c]pyrrol-2(1H)-yl)(3-methylfuran-2-yl)methanone]
423	Cc1cc(C)nc(N2CC3CN(C(=O)c4c(C)cccc4C)CC3C2)n1 (stereo not drawn) [Example 225, 2-[(2,6-Dimethylphenyl)carbonyl]-5-(4,6-dimethylpyrimidin-2-yl)octahydropyrrolo[3,4-c]pyrrole]
10000	Cc1ccoc1C(=O)N1CC2CN(c3ccc(C(F)(F)F)cn3)CC2C1 (stereo not drawn) [Example 353, 2-[(3-Methylfuran-2-yl)carbonyl]-5-[5-(trifluoromethyl)pyridin-2-yl]octahydropyrrolo[3,4-c]pyrrole]
26	Cc1cc(C)nc(N2CC3CN(C(=O)c4ccccc4-c4ncn(C)n4)CC3C2)n1 (stereo not drawn) [Example 308, 2-(4,6-Dimethylpyrimidin-2-yl)-5-{[2-(1-methyl-1H-1,2,4-triazol-3-yl)phenyl]carbonyl}octahydropyrrolo[3,4-c]pyrrole]
2200	Cc1cc(C)nc(N2CC3CN(C(=O)c4nc(C)sc4-c4ccc(F)cc4)CC3C2)n1 (stereo not drawn) [Example 254, 2-(4,6-Dimethylpyrimidin-2-yl)-5-{[5-(4-fluorophenyl)-2-methyl-1,3-thiazol-4-yl]carbonyl}octahydropyrrolo[3,4-c]pyrrole]
2210	Cc1cc(C)nc(N2CC3CN(C(=O)c4cc(F)ccc4C(F)(F)F)CC3C2)n1 (stereo not drawn) [Example 221, 2-(4,6-Dimethylpyrimidin-2-yl)-5-{[5-fluoro-2-(trifluoromethyl)phenyl]carbonyl}octahydropyrrolo[3,4-c]pyrrole]
33	Cc1cnc(C)c(N2CC3CN(C(=O)c4cc(F)ccc4-c4ncccn4)CC3C2)n1 (stereo not drawn) [Example 212, [5-(3,6-Dimethyl-pyrazin-2-yl)-hexahydro-pyrrolo[3,4-c]pyrrol-2-yl]-(5-fluoro-2-pyrimidin-2-yl-phenyl)-methanone]

same assay, conditions: read-out: OR 2 Ki

SMILES	Ki [nM]
Cc1ccc(-c2c(F)cccc2C(=O)N2CC3CN(c4nc(C)cc(C)n4)CC3C2)nc1 (stereo not drawn) [Example 374, (5-(4,6-Dimethylpyrimidin-2-yl)hexahydropyrrolo[3,4-c]pyrrol-2(1H)-yl)(3-fluoro-2-(5-methylpyridin-2-yl)phenyl)methanone]	73

Source: patent US8653263B2 (Janssen Pharmaceutica, priority 2009, dated 2014)
